These results are taken from ChEMBL document CHEMBL2364262, “Structure-activity relationship data for chemical series of agonists of the motilin receptor (Supplementary Bioactivity Data for publication CHEMBL1141008)”.

For this assay, the target named is Motilin receptor (Homo sapiens, UniProt O43193). As to the kind of experiment: SUPPLEMENTARY: Agonist activity at human recombinant motilin receptor expressed in CHO cells by calcium mobilization-based FLIPR assay. Same assay as CHEMBL942680. It counts as functional, cell-based.
Sequence of Motilin receptor (O43193 whole entry): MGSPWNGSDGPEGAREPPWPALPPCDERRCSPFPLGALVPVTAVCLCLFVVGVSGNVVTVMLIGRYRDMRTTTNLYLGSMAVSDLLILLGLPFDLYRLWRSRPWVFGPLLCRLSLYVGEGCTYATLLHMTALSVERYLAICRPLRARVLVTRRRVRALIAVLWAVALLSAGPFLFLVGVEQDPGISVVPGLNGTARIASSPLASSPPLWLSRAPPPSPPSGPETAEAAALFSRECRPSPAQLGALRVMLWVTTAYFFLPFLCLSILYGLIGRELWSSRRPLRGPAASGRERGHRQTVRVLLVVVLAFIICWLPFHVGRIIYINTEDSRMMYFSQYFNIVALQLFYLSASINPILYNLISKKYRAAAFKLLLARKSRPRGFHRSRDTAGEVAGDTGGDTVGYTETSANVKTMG
By EC50 is commonly meant the concentration needed to bring the measured effect to its halfway point. Consider `Cc1nc(-c2cccc(C#N)c2)ccc1C(=O)N(C)c1ccc(CN2CCN[C@@H](C)C2)cc1`, for which the EC50 was 1.58 nM. Turning to `Cc1cc(NS(=O)(=O)c2ccc(-c3ccc(F)cc3)nc2)ccc1CN1CCN[C@@H](C)C1`, the EC50 is 1.58 nM. For the compound `COCCN(C(=O)c1ccc(Oc2ccc(F)cc2)nc1)c1ccc(CN2CCN[C@@H](C)C2)cc1`, the EC50 was 15.8 nM. `C[C@H]1CN(Cc2ccc(CC(=O)N3CCC(Oc4ccc(F)cc4)CC3)cc2)CCN1`: the EC50 is 20 nM.

`Cc1cc(NS(=O)(=O)c2cncc(-c3ccc(F)cc3)c2)ccc1CN1CCN[C@@H](C)C1`: the EC50 was 20 nM. Turning to `C[C@H]1CN(Cc2ccc(N(C)C(=O)c3ccc(Oc4ccc(F)cc4)nc3)cc2Cl)CCN1`, the EC50 was 0.316 nM. To `C[C@H]1CN(Cc2ccc(NS(=O)(=O)c3ccc(-c4ccc(F)cc4)nc3)cc2C(F)(F)F)CCN1` belongs 1.58 nM; to `C[C@H]1CN(Cc2ccc(N(C)C(=O)c3ccc(-c4cccc(C#N)c4)nc3)cc2)CCN1`, 7.94 nM. On to `Cc1nc(-c2cccc(F)c2)ccc1C(=O)N(C)c1ccc(CN2CCN[C@@H](C)C2)cc1`, for which the EC50 was 0.631 nM. To `COCCN(C(=O)c1ccc(-c2cccc(F)c2)nc1)c1ccc(CN2CCN[C@@H](C)C2)cc1` belongs 15.8 nM. As for `C[C@H]1CN(Cc2ccc(N(C)C(=O)c3ccc(-c4cccc(F)c4)nc3)cc2F)CCN1`, the EC50 is 1.26 nM. `C[C@@H]1CN(Cc2ccc(NS(=O)(=O)c3ccc(-c4ccc(F)cc4)nc3)cc2)C[C@H](C)N1`: the EC50 was 158 nM. Take `COc1cc(CC(=O)N2CCC(Nc3cccc(F)c3)CC2)ccc1CN1CCN[C@@H](C)C1`: the half-maximal effective concentration (EC50) was 25.1 nM. As to `CCN(C(=O)c1ccc(Oc2ccc(F)cc2)nc1)c1ccc(CN2CCN[C@@H](C)C2)cc1`, the EC50 is 0.398 nM. On to `COc1cccc(-c2ccc(C(=O)N(C)c3ccc(CN4CCN[C@@H](C)C4)cc3)nc2)c1`, for which the EC50 is 7.94 nM. With `CC(C(=O)N1CCC(Nc2cccc(F)c2)CC1)c1ccc(CN2C[C@@H](C)N[C@@H](C)C2)cc1` (stereo partly specified), the EC50 was 15.8 nM.

With `C[C@@H]1CN(Cc2ccc(CC(=O)N3CCC(Nc4ccc(F)c(F)c4)CC3)cc2)CCN1`, the EC50 was 12.6 nM. As for `CCN(C(=O)c1ccc(-c2cccc(F)c2)nc1)c1ccc(CN2CCN[C@@H](C)C2)cc1`, the EC50 is 0.794 nM.

On to `C[C@H]1CN(Cc2ccc(N(C)C(=O)c3ccc(-c4ccccc4F)nc3)cc2)CCN1`, for which the EC50 was 5.01 nM. Regarding `C[C@H]1CN(Cc2ccc(N(C)C(=O)c3ccc(Oc4cccc(C#N)c4)cn3)cc2)CCN1`, the EC50 is 2 nM. On to `C[C@H]1CN(Cc2ccc(N(C)C(=O)c3ccc(Oc4ccc(F)cc4)nc3)c(F)c2)CCN1`, for which the EC50 is 3.16 nM. To `C[C@H]1CN(Cc2ccc(CC(=O)N3CCC(Nc4cccc(C(F)(F)F)c4)CC3)cc2)CCN1` belongs 6.31 nM. With `C[C@H]1CN(Cc2ccc(CC(=O)N3CCC(Oc4cccc(F)c4)CC3)cc2)CCN1`, the EC50 was 25.1 nM.

Consider `C[C@H]1CN(Cc2ccc(N(C)C(=O)c3ccc(-c4cccc(F)c4)cn3)cc2)CCN1`, for which the EC50 was 7.94 nM. For `C[C@H]1CN(Cc2ccc(N(C)C(=O)c3ccc(-c4ccc(F)cc4)cn3)cc2)CCN1`, the EC50 is 7.94 nM. To `C[C@@H]1CN(Cc2ccc(CC(=O)N3CCC(Nc4cccc(C(F)(F)F)c4)CC3)cc2)CCN1` belongs 2.51 nM; to `C[C@H]1CN(Cc2ccc(N(C)C(=O)c3ccc(Oc4ccccc4F)nc3)cc2)CCN1`, 7.94 nM.

For the compound `C[C@H]1CN(Cc2ccc(N(C)C(=O)c3ccc(-c4cccc(F)c4)nc3)c(F)c2)CCN1`, the EC50 was 6.31 nM. To `C[C@H]1CN(Cc2ccc(N(C)C(=O)c3ccc(-c4ccc(F)cc4)cc3)cc2)CCN1` belongs 39.8 nM; to `C[C@@H]1CN(Cc2ccc(CC(=O)N3CCC(Oc4ccc(C#N)cc4)CC3)cc2)CCN1`, 12.6 nM; to `C[C@@H]1CN(Cc2ccc(CC(=O)N3CCC(Nc4ccc(C#N)cc4)CC3)cc2)CCN1`, 15.8 nM. To `C[C@H]1CN(Cc2ccc(N(C)C(=O)c3cnc(-c4ccc(F)cc4)nc3)cc2)CCN1` belongs 5.01 nM; to `Cc1nc(-c2ccc(F)cc2)ccc1C(=O)N(C)c1ccc(CN2C[C@@H](C)N[C@@H](C)C2)cc1`, 0.398 nM; to `C[C@H]1CN(Cc2ccc(N(C)C(=O)c3ccc(Oc4ccccc4F)cc3)cc2)CCN1`, 5.01 nM.

Turning to `C[C@H]1CN(Cc2ccc(CC(=O)N3CCC(Nc4ccc(C(F)(F)F)cc4)CC3)cc2)CCN1`, the EC50 was 10 nM.

For `C[C@H]1CN(Cc2ccc(N(C)C(=O)c3ccc(C(=O)c4ccc(C(F)(F)F)cc4)cc3)cc2)CCN1`, the EC50 was 20 nM. With `Cc1cc(N(C)C(=O)c2ccc(-c3cccc(F)c3)nc2)ccc1CN1CCN[C@@H](C)C1`, the EC50 was 0.251 nM. On to `C[C@@H]1CN(Cc2ccn(-c3cccnc3N3CCC(Oc4ccc(F)cc4)CC3)n2)C[C@H](C)N1`, for which the EC50 is 1.26 nM. Regarding `Cc1cc(N(C)C(=O)c2ccc(Oc3ccc(F)cc3)nc2)ccc1CN1CCN[C@@H](C)C1`, the EC50 is 0.251 nM. Turning to `C[C@H]1CN(Cc2ccc(N(C)C(=O)c3ccc(-c4cccc(C#N)c4)cn3)cc2)CCN1`, the EC50 was 39.8 nM. For the compound `C[C@H]1CN(Cc2ccc(N(C)C(=O)c3ccc(Oc4cccc(F)c4)cn3)cc2)CCN1`, the EC50 is 1 nM.

`C[C@H]1CN(Cc2ccc(N(C)C(=O)c3ccc(-c4cccc(F)c4)nc3)cc2)CCN1`: the EC50 is 1.26 nM. With `C[C@H]1CN(Cc2ccc(NS(=O)(=O)c3ccc(N4CCCCC4)nc3)cc2)CCN1` the figure was 100 nM; with `Cc1cc(N(C)C(=O)c2ccc(Oc3ccc(F)cc3)nc2)ncc1CN1CCN[C@@H](C)C1`, 2 nM. As to `C[C@@H]1CN(Cc2ccc(CCC(=O)N3CCC(Nc4cccc(F)c4)CC3)cc2)C[C@H](C)N1`, the EC50 was 39.8 nM. Turning to `C[C@H]1CN(Cc2ccc(CC(=O)N3CCC(Nc4cccc(F)c4)CC3)cc2Cl)CCN1`, the concentration giving a half-maximal response (EC50) is 5.01 nM. Turning to `C[C@@H]1CN(Cc2ccc(CC(=O)N3CCC(Nc4cccc(C#N)c4)CC3)cc2)CCN1`, the EC50 is 3.16 nM. `C[C@@H]1CN(Cc2ccc(-c3cccnc3S(=O)(=O)N3CCC(Nc4ccccc4F)CC3)cc2F)C[C@H](C)N1`: the EC50 is 20 nM.

For `C[C@@H]1CN(Cc2ccc(C(C)(C)C(=O)N3CCC(Nc4cccc(F)c4)CC3)cc2)C[C@H](C)N1`, the EC50 is 25.1 nM. As for `C[C@@H]1CN(Cc2ccc(CC(=O)N3CCC(Oc4cccc(F)c4)CC3)cc2)CCN1`, the EC50 is 15.8 nM. For the compound `C[C@H]1CN(Cc2ccc(N(C)C(=O)C3CCN(Cc4ccc(F)cc4)CC3)cc2)CCN1`, the EC50 was 7.94 nM. Turning to `C[C@@H]1CN(Cc2ccn(-c3cccnc3N3CCC(Oc4cccc(F)c4)CC3)n2)C[C@H](C)N1`, the EC50 is 2.51 nM.

Take `C[C@H]1CN(Cc2ccc(-c3cccnc3C(=O)N3CCC(Nc4ccc(F)cc4)CC3)cc2)CCN1`: the EC50 was 1 nM.

On to `CC(C)N(C(=O)c1ccc(-c2cccc(F)c2)nc1)c1ccc(CN2CCN[C@@H](C)C2)cc1`, for which the EC50 was 12.6 nM. Regarding `C[C@@H]1CN(Cc2ccc(N(C)C(=O)c3ccc(-c4ccc(F)cc4)nc3)cc2)C[C@H](C)N1`, the EC50 was 2 nM.

`C[C@@H]1CN(Cc2ccn(-c3cccnc3N3CCC(Nc4ccc(F)cc4)CC3)n2)C[C@H](C)N1`: the EC50 is 2 nM. Consider `C[C@H]1CN(Cc2ccc(N(C)C(=O)C3CCN(Cc4cccc(F)c4)CC3)cc2)CCN1`, for which the EC50 is 5.01 nM. With `C[C@H]1CN(Cc2ccc(N(C)C(=O)c3ccc(Oc4cccc(C#N)c4)nc3)cc2)CCN1`, the EC50 was 3.16 nM. With `Cc1nc(-c2ccc(F)cc2)ncc1C(=O)N(C)c1ccc(CN2CCN[C@@H](C)C2)cc1`, the EC50 is 1.58 nM. With `C[C@H]1CN(Cc2ccn(-c3cccnc3N3CCC(Oc4cccc(F)c4)CC3)n2)CCN1` the figure was 0.794 nM; with `C[C@H]1CN(Cc2ccc(N(C)C(=O)c3ccc(-c4ccc(F)cc4)nc3)cc2)CCN1`, 1.58 nM; with `C[C@@H]1CN(Cc2ccn(-c3cccnc3N3CCC(Oc4ccccc4F)CC3)n2)C[C@H](C)N1`, 6.31 nM. With `C[C@H]1CN(Cc2ccc(CC(=O)N3CCC(Nc4ccc(F)c(F)c4)CC3)cc2)CCN1`, the EC50 is 7.94 nM. In the case of `C[C@H]1CN(Cc2ccc(CC(=O)N3CCC(Nc4ccc(C#N)cc4)CC3)cc2)CCN1`, the EC50 is 31.6 nM. To `C[C@H]1CN(Cc2ccc(N(C)C(=O)c3ccc(Oc4ccc(F)cc4)nc3)nc2)CCN1` belongs 31.6 nM; to `C[C@H]1CN(Cc2ccc(N(C)C(=O)C3CCN(Cc4ccc(C#N)cc4)CC3)cc2)CCN1`, 63.1 nM. For `C[C@H]1CN(Cc2ccc(N(C)C(=O)C3CCN(Cc4cccc(C#N)c4)CC3)cc2)CCN1`, the EC50 is 39.8 nM. As for `C[C@H]1CN(Cc2ccc(N(C)C(=O)c3ccc(Oc4cccc(F)c4)cc3)cc2)CCN1`, the EC50 is 2.51 nM.

`C[C@H]1CN(Cc2ccc(N(C)C(=O)c3ccc(N4CCC(F)CC4)nc3)cc2)CCN1`: the EC50 was 79.4 nM. `C[C@@H]1CN(Cc2ccc(CC(=O)N3CCC(Oc4ccc(F)cc4)CC3)cc2)CCN1`: the EC50 is 12.6 nM.

Take `C[C@@H]1CN(Cc2ccc(-c3cccnc3N3CCC(Nc4ccc(F)cc4)CC3)s2)C[C@H](C)N1`: the EC50 was 25.1 nM.
